Drawing on patent US20070037831A1, “Methods of using PDE 5 inhibitors for the treatment of congestive heart failure” (priority 2004, published 2007), this text covers IC50 for 72 molecules.

SMILES strings stand for the structures.

The experiment concerns the target PDE V (Homo sapiens, UniProt O76074). The experiment is described as follows: PDE V inhibition (PDE V IC50). Format: biochemical.
As usually defined, the IC50 is the concentration at which inhibition is half-maximal. Higher therefore signals weaker potency. Consider `Cn1c(=O)c2c(nc(NC3CCCCCC3)n2Cc2ccc(O)cc2)n(C)c1=O` [Compound 69], for which the IC50 lay within 15 to 100 nM.
In the case of `COc1ccc(Cn2c(NC3CCCCCC3)nc3c2c(=O)n(C)c(=O)n3C)cc1` [Compound 43], the IC50 was 15 to 100 nM.
`CCn1c(=O)[nH]c2nc(NC3CCCC3)n(Cc3ccc(OC)cc3)c2c1=O` [Compound 93] returned an IC50 of 10 to 15 nM.
For `CCn1c(=O)c2c(nc(N[C@@H]3CCC[C@H]3O)n2Cc2cc(Br)c3c(c2)CCO3)n(CCO)c1=O` [Compound 128], the IC50 lay within 15 to 100 nM.
Regarding `CCn1c(=O)c2c(nc(NC3CCCCC3)n2Cc2ccc(S(N)(=O)=O)c(Br)c2)n(CC)c1=O` [Compound 180], the IC50 is 5 to 10 nM.
`CCn1c(=O)[nH]c2nc(NC3CCCCC3)n(Cc3ccc(O)cc3)c2c1=O` [Compound 94] registered an IC50 of 10 to 15 nM.
For the molecule `Cn1c(=O)[nH]c(=O)c2c1nc(NC1CCCC1)n2Cc1ccc(O)cc1` [Compound 68], the IC50 lay in the range of 5 to 10 nM.
As to `CCn1c(=O)c2c(nc(NC3CCCCC3)n2Cc2ccccc2)n(CC)c1=O` [Compound 29], the IC50 was in the range of 10 to 15 nM.
Molecule `CCn1c(=O)c2c(nc(NC3CCCCC3)n2Cc2ccc(C(F)(F)F)cc2)n(CC(C)C)c1=O` [Compound 96] yielded an IC50 of 15 to 100 nM.
`Cn1c(=O)c2c(nc(NC3CCCCC3)n2Cc2ccccc2F)n(C)c1=O` [Compound 136] showed an IC50 of 10 to 15 nM.
The same measure for `Cn1c(=O)c2c(nc(NC3CCCCC3)n2Cc2ccc3c(c2)OCO3)n(C)c1=O` [Compound 142]: not above 5 nM.
In the case of `CCn1c(=O)c2c(nc(N[C@@H]3CCC[C@H]3O)n2Cc2ccc(OC)c(Br)c2)n(CCO)c1=O` [Compound 114] it was not above 5 nM; in that of `CCn1c(=O)c2c(nc(NC3CCCC3)n2Cc2ccccc2)n(CC(C)C)c1=O` [Compound 55], 15 to 100 nM; in that of `CCn1c(=O)c2c(nc(NC3CCC(F)(F)CC3)n2Cc2ccc(OC)c(Br)c2)n(CC)c1=O` [Compound 199], 5 to 10 nM.
`CCCn1c(=O)n(CC)c(=O)c2c1nc(NC1CCCCC1)n2Cc1ccc(OC)c(Cl)c1` [Compound 171] gave an IC50 of 5 to 10 nM.
`COc1ccc(Cn2c(NC3CCC3)nc3c2c(=O)n(C)c(=O)n3C)cc1` [Compound 42] registered an IC50 of 15 to 100 nM.
Take `COc1ccc(Cn2c(=O)c3c(nc(NC4CCCCC4)n3Cc3ccc(OC)cc3)n(C)c2=O)cc1` [Compound 21]: the IC50 lay within 5 to 10 nM.
The molecule `CCn1c(=O)[nH]c2nc(NC3CCCCC3)n(Cc3ccc(OC)cc3)c2c1=O` [Compound 92] gave an IC50 of 15 to 100 nM.
On to `CCn1c(=O)c2c(nc(NC3CCSCC3)n2Cc2ccc(OC)c(Cl)c2)n(CC)c1=O` [Compound 197], for which the IC50 is not above 5 nM.
The molecule `CCn1c(=O)c2c(nc(NC3CCCC3)n2Cc2ccc(OC)cc2)n(C)c1=O` [Compound 24] gave an IC50 of 10 to 15 nM.
Consider `CCn1c(=O)c2c(nc(NC3CCCCC3)n2Cc2ccc(OC)cc2)n(C)c1=O` [Compound 23], for which the IC50 lay in the range of 10 to 15 nM.
For `CCCn1c(=O)n(CC)c(=O)c2c1nc(NC1CCCCC1)n2Cc1cccc(O)c1` [Compound 177], the IC50 is not above 5 nM.
`CCn1c(=O)c2c(nc(NC3CCCC3)n2Cc2ccc(O)cc2)n(CC)c1=O` [Compound 63] had a concentration for half-maximal inhibition (IC50) not above 5 nM.
`CCn1c(=O)c2c(nc(NC3CCOCC3)n2Cc2ccc(S(N)(=O)=O)c(Cl)c2)n(CC)c1=O` [Compound 191] gave an IC50 not above 5 nM.
`COc1ccc(Cn2c(=O)c3c(nc(NC4CCCC4)n3Cc3ccc(OC)cc3)n(C)c2=O)cc1` [Compound 22] gave an IC50 of 5 to 10 nM.
`CCn1c(=O)c2c(nc(NC3CCS(=O)(=O)CC3)n2Cc2ccc(OC)c(Cl)c2)n(CC)c1=O` [Compound 193]: the IC50 lay within 15 to 100 nM.
On to `CCn1c(=O)c2c(nc(NC3CCCC3O)n2Cc2ccc(OC)cc2)n(CC(C)C)c1=O` (stereo not drawn) [Compound 40], for which the IC50 fell in the range of 10 to 15 nM.
As for `Cc1cccc(Cn2c(NC3CCCCC3)nc3c2c(=O)n(C)c(=O)n3C)c1` [Compound 131], the IC50 lay within 15 to 100 nM.
Turning to `CCCn1c(=O)n(CC)c(=O)c2c1nc(NC1CCCCC1)n2Cc1ccc(S(C)(=O)=O)cc1` [Compound 121], the IC50 lay within 15 to 100 nM.
In the case of `CCn1c(=O)c2c(nc(N[C@H]3CC[C@H](O)CC3)n2Cc2ccc(OC)c(Br)c2)n(CC)c1=O` [Compound 125] it was 10 to 15 nM; in that of `Cn1c(=O)c2c(nc(NC3CCCC3)n2Cc2ccccc2)n(C)c1=O` [Compound 15], 15 to 100 nM.
On to `COc1cccc(Cn2c(NC3CCCCC3)nc3c2c(=O)n(C)c(=O)n3C)c1` [Compound 141], for which the IC50 was 15 to 100 nM.
In the case of `Cn1c(=O)c2c(nc(NC3CCCC3)n2Cc2ccc(O)cc2)n(C)c1=O` [Compound 36] it was 5 to 10 nM.
`CCn1c(=O)c2c(nc(N[C@@H]3CCC[C@H]3O)n2Cc2ccc(S(N)(=O)=O)cc2)n(CC)c1=O` [Compound 126] yielded an IC50 of 15 to 100 nM.
In the case of `CCn1c(=O)c2c(nc(NC3CCCCC3)n2Cc2ccc(O)cc2)n(C)c1=O` [Compound 78] it was 5 to 10 nM; in that of `COc1ccc(Cn2c(NC3CCCCC3)nc3c2c(=O)n(C)c(=O)n3CC(C)C)cc1` [Compound 31], 15 to 100 nM.
Take `CCn1c(=O)c2c(nc(NC3CCCCC3)n2Cc2ccc(OC)cc2)n(CC(C)C)c1=O` [Compound 39]: the IC50 fell in the range of 10 to 15 nM.
In turn, `COc1ccc(Cn2c(NC3CCCC3)nc3c2c(=O)n(C)c(=O)n3C)cc1` [Compound 32] had an IC50 of 15 to 100 nM.
Turning to `Cc1ccc(Cn2c(NC3CCCCC3)nc3c2c(=O)n(C)c(=O)n3C)cc1` [Compound 132], the IC50 lay within 5 to 10 nM.
In the case of `CCn1c(=O)c2c(nc(NC3CCSCC3)n2Cc2ccc(OC)c(Br)c2)n(CC)c1=O` [Compound 198] it was not above 5 nM; in that of `CCn1c(=O)c2c(nc(NC3CCCCC3)n2Cc2ccccc2)n(CCO)c1=O` [Compound 101], 15 to 100 nM.
Consider `COc1ccc(Cn2c(NC3CCCC3)nc3c2c(=O)n(C)c(=O)n3CC(C)C)cc1` [Compound 30], for which the 50% inhibitory concentration (IC50) lay in the range of 15 to 100 nM.
The molecule `COc1ccc(Cn2c(NC3(CO)CC=CC3)nc3c2c(=O)n(C)c(=O)n3C)cc1` [Compound 34] registered an IC50 of 10 to 15 nM.
The same measure for `CCn1c(=O)c2c(nc(NC3(CO)CC=CC3)n2Cc2ccccc2)n(CC(C)C)c1=O` [Compound 57]: 15 to 100 nM; for `CCn1c(=O)c2c(nc(NC3CCCCC3)n2Cc2ccc(S(N)(=O)=O)c(Br)c2)n(CCO)c1=O` [Compound 184]: 15 to 100 nM; for `CCn1c(=O)c2c(nc(NC3CCCC3O)n2Cc2ccccc2)n(CC(C)C)c1=O` (stereo not drawn) [Compound 58]: 15 to 100 nM.
The molecule `CCn1c(=O)c2c(nc(NC3CCCC3)n2Cc2ccc(OC)cc2)n(CC)c1=O` [Compound 60] showed an IC50 not above 5 nM.
For `CCn1c(=O)c2c(nc(N[C@@H]3CCC[C@H]3O)n2Cc2ccc(O)c(C)c2)n(CCO)c1=O` [Compound 113], the IC50 lay within 15 to 100 nM.
With `CCn1c(=O)c2c(nc(NC3CCS(=O)(=O)CC3)n2Cc2ccc(OC)c(Br)c2)n(CC)c1=O` [Compound 194], the IC50 lay in the range of 15 to 100 nM.
In the case of `CCn1c(=O)c2c(nc(NC3CCCCC3)n2Cc2ccc(S(N)(=O)=O)c(Cl)c2)n(CC)c1=O` [Compound 179] it was not above 5 nM; in that of `CCn1c(=O)c2c(nc(NC3CCCCC3)n2Cc2ccc(S(N)(=O)=O)c(Cl)c2)n(CCO)c1=O` [Compound 183], 5 to 10 nM; in that of `CCn1c(=O)[nH]c2nc(NC3CCCC3)n(Cc3ccc(O)cc3)c2c1=O` [Compound 95], 5 to 10 nM.
The same measure for `CCn1c(=O)c2c(nc(NC3CCCCC3)n2Cc2ccc(O)c(C)c2)n(CCO)c1=O` [Compound 112]: 10 to 15 nM; for `Cn1c(=O)[nH]c(=O)c2c1nc(NC1CCCCC1)n2Cc1ccc(O)cc1` [Compound 71]: 15 to 100 nM.
As to `COc1ccc(Cn2c(NC3(CO)CCCC3)nc3c2c(=O)n(C)c(=O)n3CC(C)C)cc1` [Compound 18], the IC50 is 15 to 100 nM.
In the case of `CCn1c(=O)c2c(nc(N[C@@H]3CCC[C@H]3O)n2Cc2ccc(O)c(Cl)c2)n(CCO)c1=O` [Compound 115], the IC50 lay within 5 to 10 nM.
For the molecule `CCn1c(=O)c2c(nc(NC3CCCCC3)n2Cc2ccccc2)n(CC(C)C)c1=O` [Compound 56], the IC50 lay within 15 to 100 nM.
Take `CCn1c(=O)c2c(nc(NC3CCCCC3)n2Cc2ccc(OC)c(C)c2)n(CC)c1=O` [Compound 166]: the IC50 is 15 to 100 nM.
In the case of `CCn1c(=O)c2c(nc(N[C@@H]3CCC[C@@H]3O)n2Cc2ccccc2)n(CC)c1=O` [Compound 14], the IC50 fell in the range of 15 to 100 nM.
In turn, `CCn1c(=O)c2c(nc(NC3CCCCC3)n2Cc2ccc(S(N)(=O)=O)cc2)n(CCO)c1=O` [Compound 182] came in with an IC50 of 15 to 100 nM.
The same measure for `COc1ccc(Cn2c(NC3CCCCC3)nc3c2c(=O)[nH]c(=O)n3C)cc1` [Compound 70]: 15 to 100 nM; for `CCn1c(=O)c2c(nc(NC3CCCCC3)n2Cc2cc3c(cc2Cl)OCO3)n(CCO)c1=O` [Compound 108]: 10 to 15 nM.
The molecule `Cn1c(=O)c2c(nc(NC3CC4CCC3C4)n2Cc2ccc(O)cc2)n(C)c1=O` (stereo not drawn) [Compound 77] gave an IC50 of 15 to 100 nM.
As for `CCn1c(=O)c2c(nc(NC3CCCCC3)n2Cc2ccccc2F)n(CC)c1=O` [Compound 165], the IC50 fell in the range of 15 to 100 nM.
Molecule `Cn1c(=O)c2c(nc(NC3CCCCC3)n2Cc2ccc(F)cc2)n(C)c1=O` [Compound 138] registered an IC50 of 15 to 100 nM.
The molecule `CCn1c(=O)c2c(nc(NC3CCCCC3)n2Cc2ccc(OC)c(C)c2)n(CCO)c1=O` [Compound 110] came in with an IC50 of 5 to 10 nM.
The same measure for `CCn1c(=O)c2c(nc(N[C@@H]3CCC[C@H]3O)n2Cc2ccc(S(N)(=O)=O)c(Cl)c2)n(CC)c1=O` [Compound 181]: 15 to 100 nM; for `Cn1c(=O)c2c(nc(NC3CCCCC3)n2Cc2cccc(F)c2)n(C)c1=O` [Compound 137]: 15 to 100 nM.
Molecule `CCn1c(=O)c2c(nc(N[C@@H]3CCC[C@H]3O)n2Cc2ccc(OC)c(C)c2)n(CCO)c1=O` [Compound 111] showed an IC50 of 10 to 15 nM.
`CCn1c(=O)c2c(nc(NC3CCCCC3)n2Cc2cccc(Cl)c2)n(CC)c1=O` [Compound 120] registered an IC50 of 15 to 100 nM.
`CCn1c(=O)c2c(nc(NC3CCCCC3)n2Cc2ccc(OC(C)=O)cc2)n(CC)c1=O` [Compound 89] displayed an IC50 of 5 to 10 nM.
For the molecule `COc1ccc(Cn2c(NC3CCCCC3)nc3c2c(=O)n(C)c(=O)n3C)cc1C` [Compound 144], the IC50 lay within 10 to 15 nM.
